Source: patent US6656936B1, “Carnitine analogues as topical, microbicidal spermicides” (Virginia Tech Intellectual Properties, Inc., priority 1999, dated 2003)
Converted amounts (≈) assume the structure as drawn. Marks after values point to notes of the source that are not given here.

Experiments:
[1] = system: human sperm (semen samples); test: Spermicidal activity in the Sander-Cramer test; assay type: cell-based; settings: for Highest Spermicidal Dilution (1/X) / MEC / MEC (Minimum Effective Concentration): n=10; for MEC (Minimum Effective Concentration per Sander-Cramer assay): Table 4, dH2O
Experimental: Semen samples were collected from healthy human volunteers: only specimens with >60×10^6 motile sperm/mL and >50% motility were used. Two-fold serial dilutions of the compounds were prepared in 0.9% saline and incubated with semen samples for 20 seconds. Sperm were assessed under the microscope and positive dilutions (i.e. all observed sperm were immotile) were further incubated at 37° C. for 1 hour with 2 vol. of buffer, and re-examined for sperm motility. If no motile sperm were seen, the positive score was maintained. The Minimum Effective Concentration (MEC) for the compound was calculated using the highest sperm immobilizing dilution and its initial concentration.

HIV-1 (RF strain) = test: In vitro anti-HIV cell-free inactivation assay; assay type: cell-based; settings: for reduction of infective viral titer: 2 minutes exposure
Experimental: The assay for in vitro anti-HIV activity followed the previously described procedure (Resnick et al., 1990). An infectious suspension of HIV-1 (RF strain, NIH 1983) was exposed to the compounds for 2 minutes. Immediately after, the mixture was 10-fold serially diluted with medium to terminate compound effect, and the dilutions were incubated with MT-2 target cells at 37° C. The cells were maintained in growth medium at 37° C. for 6 days. HIV-induced cytopathology (syncytium formation) was assessed on day 6 after infection, as was cell viability.

Candida albicans = test: Inhibition of growth of Candida albicans (MIC); assay type: cell-based; settings: for MIC: C. albicans, 4 days at 28° C.
Experimental: The Minimum Inhibitory Concentrations (MICs) of Z-10-Z-15 were measured by determining the inhibition of growth of C. albicans in a solution of mineral salts plus yeast extract (See Standard Practice for Determining Resistance of Synthetic Polymeric Material to Fungi. American Society for Testing and Materials (ASTM) Standards on Materials and Environmental Microbiology, 1st Ed., 1987), and amended with glucose (10 g/L) and yeast extract (1 g/L). An aliquot (250 μl) of sterile medium was dispensed into each well of a 96-well microplate. Stock solutions were prepared by dissolving test compounds in 50% (v/v) aqueous dimethylsulfoxide (DMSO). Each well (plus controls) was then inoculated with 5 μl of a suspension of C. albicans. The suspension was then adjusted to provide OD686=0.28. This density contains ca. 2.5×10^7 colony forming units (CFU)^2/mL. The microplates were incubated in the dark for 4 days at 28° C.

[2] = system: sperm penetration in bovine cervical mucus; test: Cervical mucus biodiffusion, Double-End test; settings: testing concentration ten fold MEC; 60 minutes incubation; n=12
Experimental: The cervical mucus Biodiffusion properties of (R)Z-14 and (R)-Z-15 analogues were tested in comparison to that of N-9 using the Double-End test (Doncel. 1994). In this test, compound solutions (in 0.9% saline) were incubated for 60 minutes with a 7 cm capillary tube containing bovine cervical mucus (Penetrak®, Biochem Immuno System, Norwell, Mass.) opened at one end. After such incubation, the tubes' open end, which had been in contact with the compound, was sealed. Subsequently, the tubes were cut open at 20 mm from the initial opening, inverted, and immersed in semen so as to allow sperm penetration in an opposite direction to that of the compound diffusion. Sperm cease penetration when they encounter a bioactive concentration of the test compound. Thus, the lower the sperm penetration, the greater the compound's biodiffusion. In addition, the spermicidal activity of the analogues was tested again.

pH of sample = assay type: physicochemical
Source text: The recent disclosure (Fassi, U.S. Pat. No. 5,952.379) of stable, non-hygroscopic salts of L-(-)[(R)-]acylcamitine and alkanoyl L-(-)-[(R)-]acylcarnitines with mucic acid (MA) (2:1) prompted the exploration of the effects of blending MA with Z-15. Blending reduced the pH of a sample of Z-15 from about 9-10 to about 3.5-3.8. The blends contained only 67% Z-15 as an active ingredient compared to pure Z-15 (100%).

spermatozoa = test: Sperm motility inhibition dose-response; assay type: cell-based; settings: FIG. 2
Experimental: The ability of Z-15-mucic acid blends [(R)-Z-15-MA and rac-Z-15-MA] to inhibit sperm motility was tested in comparison to (R)-Z-15 alone or N-9. The results are depicted in FIG. 2.

[3] = Effect of time in CMC formulation on activity and chemical integrity; assay type: physicochemical
Experimental: Residual samples of (R)-Z-15 in the CMC formulation were analyzed with ^1H nuclear magnetic resonance (NMR) and Matrix Assisted Laser Desorption Ionization Time of Flight Mass Spectroscopy (MALDI-TOF). For the NMR analyses, samples of the hydrogel were dissolved in D2O. For the MALDI-TOF analysis a sample of the hydrogel was placed in the chamber and subjected to the laser. The MALDI-TOF results are depicted in FIG. 1.

[4] = Table 5, initial conc. 10 mg/ml in dH2O
[5] = Table 6, initial conc. 10 mg/mL in dH2O
[6] = Table 1, initial conc. 10 mg/ml in dH2O

Compound	MIC (Candida albicans)	Highest Spermicidal Dilution (1/X) [1, 4]	MEC [1, 4]	reduction of infective viral titer (HIV-1 (RF strain); 0.32 mg/mL)	reduction of infective viral titer (HIV-1 (RF strain); 1 mg/mL)	reduction of infective viral titer (HIV-1 (RF strain); 3.2 mg/mL)	reduction of infective viral titer (HIV-1 (RF strain); 10 mg/mL)	Highest Spermicidal Dilution (1/X) [1, 6]	MEC (Minimum Effective Concentration) [1, 6]	reduction of infective viral titer (HIV-1 (RF strain); 0.032 mg/mL)	reduction of infective viral titer (HIV-1 (RF strain); 0.1 mg/mL)	MEC (Minimum Effective Concentration per Sander-Cramer assay) [1]	DET % control (test sperm penetration compared to control) [2]	further results
CCCCCCCCCCCCCCCC1(O)C[N+](C)(C)CC(CC(=O)[O-])O1 (racemic) [(rac)-Z-15]	–	115.2 ± 23.6 1/X	0.117 ± 0.016 mg/mL	–	–	–	–	–	–	–	–	–	–	spermicidal activity, in words ([1]; Table 5): slightly more active than the two enantiomers and significantly more active than N-9; spermicidal activity, in words ([1]; Table 6): activity equal to that of the R and S enantiomers; Highest Spermicidal Dilution (1/X) [1, 5]: 108.80 ± 19.20 1/X; MEC [1, 5]: 0.113 mg/mL
CCCCCCCCCCC[C@@]1(O)C[N+](C)(C)C[C@@H](CC(=O)[O-])O1 [Compound Z-11]	>100 µg/mL	–	–	0.8 log units	2.0 log units	2.7 log units	4.7 log units	7.6 ± 0.0 1/X	1.4 ± 0.1 mg/mL	–	–	–	–	–
CCCCCCCCCCCC[C@@]1(O)C[N+](C)(C)C[C@@H](CC(=O)[O-])O1 [Compound Z-12]	80 to 100 µg/mL	–	–	2.0 log units	2.8 log units	≧3.5 log units	≧4.0^ log units	27.2 ± 2.3 1/X	0.407 ± 0.7 mg/mL	0.0 log units	0.3 log units	–	–	–
Nonoxynol-9 [Compound N-9, reference compound]	–	33.6 ± 3.5 1/X	0.329 ± 0.035 mg/mL	3.5 log units	≧4.0^ log units	–	–	83.2 ± 18.2 1/X	0.144 ± 0.011 mg/mL	0.5 log units	2.2 log units	0.144 ± 0.011 mg/mL	17.5 ± 0.7 % control	anti-HIV activity, in words (HIV-1 (RF strain); Table 2): slightly more active than these compounds; Highest Spermicidal Dilution (1/X) [1, 5]: 73.6 ± 8.4 1/X; MEC [1, 5]: 0.156 mg/mL

More lines, main results first:

MIC (Candida albicans)	Compound	Highest Spermicidal Dilution (1/X) [1, 4]	MEC [1, 4]	reduction of infective viral titer (HIV-1 (RF strain); 0.32 mg/mL)	reduction of infective viral titer (HIV-1 (RF strain); 1 mg/mL)	reduction of infective viral titer (HIV-1 (RF strain); 3.2 mg/mL)	reduction of infective viral titer (HIV-1 (RF strain); 10 mg/mL)	Highest Spermicidal Dilution (1/X) [1, 6]	MEC (Minimum Effective Concentration) [1, 6]	reduction of infective viral titer (HIV-1 (RF strain); 0.032 mg/mL)	reduction of infective viral titer (HIV-1 (RF strain); 0.1 mg/mL)	MEC (Minimum Effective Concentration per Sander-Cramer assay) [1]	DET % control (test sperm penetration compared to control) [2]	further results
>100 µg/mL	CCCCCCCCCC[C@@]1(O)C[N+](C)(C)C[C@@H](CC(=O)[O-])O1 [Compound Z-10]	–	–	0.8 log units	1.0 log units	2.8 log units	≧4.0^a log units	4.8 ± 0.5 1/X	2.3 ± 0.2 mg/mL	–	–	–	–	–
40 µg/mL (≈ 108 µM)	CCCCCCCCCCCCC[C@@]1(O)C[N+](C)(C)C[C@@H](CC(=O)[O-])O1 [Compound Z-13]	–	–	2.7 log units	3.3 log units	3.5 log units	3.5 log units	48.0 ± 5.1 1/X	0.235 ± 0.025 mg/mL	0.5 log units	1.5 log units	–	–	–
10 µg/mL (≈ 25.9 µM)	CCCCCCCCCCCCCC[C@@]1(O)C[N+](C)(C)C[C@@H](CC(=O)[O-])O1 [Compound Z-14]	–	–	2.8 log units	3.5 log units	≧4.0 log units	≧4.0^ log units	102.4 ± 18.5 1/X	0.121 ± 0.014 mg/mL	0.5 log units	1.5 log units	0.091 ± 0.008 mg/mL	18.0 ± 1.2 % control	spermicidal activity (MEC), in words ([1]; Table 1): slightly lower than that of N-9; C. albicans growth inhibition, in words (Candida albicans): acceptable activity
2 µg/mL (≈ 5 µM)	CCCCCCCCCCCCCCC[C@@]1(O)C[N+](C)(C)C[C@@H](CC(=O)[O-])O1 [Compound Z-15]	73.6 ± 9.1 1/X	0.156 ± 0.019 mg/mL	2.7 log units	3.2 log units	3.8 log units	≧4.0^ log units	102.4 ± 9.9 1/X	0.109 ± 0.012 mg/mL	0.3 log units	1.5 log units	0.104 ± 0.011 mg/mL	16.0 ± 0.0 % control	pH of a sample (pH of sample): 9-10; inhibition of sperm motility at concentrations below the MEC, in words (spermatozoa): superior ability of Z-15 over N-9; spermicidal activity (MEC), in words ([1]; Table 1): slightly lower than that of N-9; chemical integrity in formulation (1H NMR, MALDI-TOF) ([3]; six months in the CMC formulation): remained unchanged chemically; spermicidal activity after time in formulation ([3]; three months in the CMC formulations): still active as a spermicide after three months; C. albicans growth inhibition, in words (Candida albicans): highest activity
